From article PMC5215716, “A Target-Based Whole Cell Screen Approach To Identify Potential Inhibitors of Mycobacterium tuberculosis Signal Peptidase” (ACS Infectious Diseases, 2016)
Converted amounts (≈) assume the structure as drawn. Read-outs that look alike come from different tables or passages of the source. Marks after values point to notes of the source that are not given here.

Experiments:
LepB = target: T1, LepB (Mycobacterium tuberculosis, UniProt P9WKA1); test: LepB membrane assay (fluorogenic signal peptide cleavage by cell membrane fraction); type: biochemical; settings: M. tuberculosis H37Rv cell membrane fraction, 2 μM peptide substrate, 4 h at 37 °C
T1 construct: we used purified membrane fractions to develop an in vitro assay for signal peptide cleavage; host or cells: γ-irradiated whole M. tuberculosis H37Rv; Triton X-114 membrane fraction
T1 sequence (P9WKA1 1-294): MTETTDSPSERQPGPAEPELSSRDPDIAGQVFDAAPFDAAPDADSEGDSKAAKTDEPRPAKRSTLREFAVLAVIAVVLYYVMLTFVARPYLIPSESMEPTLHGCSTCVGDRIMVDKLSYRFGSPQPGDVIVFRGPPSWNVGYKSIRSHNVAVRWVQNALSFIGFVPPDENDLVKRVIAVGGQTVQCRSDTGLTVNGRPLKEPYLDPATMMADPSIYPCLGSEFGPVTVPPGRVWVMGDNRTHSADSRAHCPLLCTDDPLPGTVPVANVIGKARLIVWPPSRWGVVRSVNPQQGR

[1] = test system: wild-type (wt) M. tuberculosis strain; test: microbe, parasite or virus in culture; type: cell-based, Mycobacterium tuberculosis; settings: for MIC: Mycobacterium tuberculosis
[2] = test system: M. tuberculosis strain SPAM13C (LepB-UE); test: microbe, parasite or virus in culture; type: cell-based, Mycobacterium tuberculosis; settings: for MIC: Mycobacterium tuberculosis; for Change in potency against LepB-UE compared to compound 1: decrease in potency relative to compound 1
in vitro = type: cell-based, African green monkey; settings: African green monkey
Procedure: Cytotoxicity against African green monkey adult kidney cell (Vero cells) was determined as previously described using CellTiter-Glo reagent.[44] The concentration causing 50% growth inhibition (IC50) was calculated by fitting the inhibition curves using the Levenberg–Marquardt algorithm.

[3] = 120 h, […], OD590 after 5 days at 37 °C, average ± SD of at least two experiments, b = single value, read-out: WT MIC
[4] = 120 h, M. tuberculosis strain SPAM13C, OD590 after 5 days at 37 °C, average ± SD of at least two experiments, b = single value, read-out: LepB-UE MIC
[5] = M. tuberculosis strain SPAM13C, OD590 after 5 days at 37 °C, average ± SD of at least two experiments, b = single value

| Structure (SMILES) | IC50 (LepB) | MIC [1, 3] | MIC [2, 4] | CC50 (in vitro) | further results |
| --- | --- | --- | --- | --- | --- |
| C/C(=N\Nc1nc(C)cc(C)n1)c1ccccn1 [Compound 1] | 39 µM | 18 ± 1 µM (≈ 4.34 µg/mL) | 3 ± 1.1 µM (≈ 0.724 µg/mL) | 2.3 µM | – |
| Oc1ccccc1/C=N/Nc1nc(-c2ccccc2)cs1 [Compound 2] | > 200 µM | 43 ± 26 µM (≈ 12.7 µg/mL) | 9.3 ± 3.2 µM (≈ 2.75 µg/mL) | 13 µM | – |
| O=[N+]([O-])c1ccc(O)c(/C=N/Nc2ccccn2)c1 [Compound 3] | 12 µM | 11 µM (≈ 2.84 µg/mL) | 4.7 µM (≈ 1.21 µg/mL) | 2.9 µM | – |
| Cc1cnn(-c2cc(N/N=C/c3ccccc3O)ncn2)c1 [Compound 4] | > 200 µM | 10 ± 7 µM (≈ 2.94 µg/mL) | 4.5 ± 2.5 µM (≈ 1.32 µg/mL) | 9.2 µM | – |
| Cc1ccc2cc(C)c(N/N=C/c3cc(Br)ccc3O)nc2c1 [Compound 5] | > 200 µM | > 200 µM | 7.4 ± 3.4 µM (≈ 2.74 µg/mL) | 5 µM | – |
| Cc1nc2ccccc2nc1N/N=C/c1ccc(O)c(C)c1O [Compound 6] | > 200 µM | 26 ± 12 µM (≈ 8.02 µg/mL) | 3.8 ± 1.3 µM (≈ 1.17 µg/mL) | 8.7 µM | – |
| Cc1nc2ccccc2nc1N/N=C/c1c(O)ccc2ccccc12 [Compound 7] | 130 µM | 14 ± 3 µM (≈ 4.6 µg/mL) | 3.9 ± 1.7 µM (≈ 1.28 µg/mL) | 5.2 µM | – |
| Oc1ccc(/C=N/Nc2ccc3ccccc3n2)c(O)c1 [Compound 8] | > 200 µM | > 200 µM | 3.6 ± 1.1 µM (≈ 1.01 µg/mL) | 6.7 µM | – |
| Cc1ccc(Nc2nc(N/N=C/c3ccccc3O)nc(N3CCOCC3)n2)c(Br)c1 [Compound 9] | > 200 µM | 57 ± 24 µM (≈ 27.6 µg/mL) | 11 ± 1 µM (≈ 5.33 µg/mL) | 13 µM | – |
| COc1ccc(Nc2nc(NCc3ccco3)nc(N/N=C/c3ccccc3O)n2)cc1 [Compound 10] | > 200 µM | > 200 µM | 5.4 ± 2.6 µM (≈ 2.33 µg/mL) | 4.3 µM | – |
| C/C(=N\NC(=O)c1ccc(N2CCCC2=O)cc1)c1ccccn1 [Compound 11] | 26 µM | < 10 µM | 3.5 to 15 µM (≈ 1.13 to 4.84 µg/mL) | 6.1 µM | WT MIC ([1]; […], OD590 after 5 days at 37 °C, average ± SD of at least two experiments, b = single value): 14 ± 7 µM; LepB-UE MIC [2, 5]: 3.5 ± 1.8 µM |
| O=C(N/N=C/c1cccc2cccnc12)c1ccn(Cc2ccc(Cl)cc2)n1 [Compound 12] | > 200 µM | 22 ± 2 µM (≈ 8.58 µg/mL) | 3.5 to 15 µM (≈ 1.36 to 5.85 µg/mL) | 34 µM | LepB-UE MIC [2, 5]: 6.3 ± 3.5 µM |
| O=C(N/N=C/c1cccc2cccnc12)c1ccn(Cc2ccc(Cl)cc2Cl)n1 [Compound 13] | > 200 µM | 18 ± 5 µM (≈ 7.64 µg/mL) | 3.5 to 15 µM (≈ 1.49 to 6.36 µg/mL) | 21 µM | LepB-UE MIC [2, 5]: 4.7 ± 0.6 µM |
| CCOC(=O)CN1C(=O)/C(=N\NC(=O)c2ccccn2)c2ccccc21 [Compound 14] | > 200 µM | > 200 µM | 3.5 to 15 µM (≈ 1.23 to 5.29 µg/mL) | 32 µM | LepB-UE MIC [2, 5]: 4.9 ± 1.9 µM |
| N=C(N/N=C/c1ccccc1O)c1ccccn1 [Compound 17] | – | – | 6.7 ± 1.6 µM (≈ 1.61 µg/mL) | > 100 µM | Increase in potency against wt compared to 16 ([1]; relative to compound 16): ~4 fold |
| C/C(=N\NC(=S)Nc1cccc(C)c1)c1ccccc1O [Compound 18] | – | 18 ± 12 µM (≈ 5.39 µg/mL) | 9 ± 5.8 µM (≈ 2.69 µg/mL) | 11 µM | – |
| CSC(=S)N/N=C(\c1ccccc1)c1ccccn1 [Compound 19] | – | 10 ± 3 µM (≈ 2.87 µg/mL) | 6 ± 4.2 µM (≈ 1.72 µg/mL) | 2.4 µM | – |
| C/C(=N\Nc1nc(C)cc(C)n1)c1ccccc1O [Compound 24] | – | 40 ± 8 µM (≈ 10.3 µg/mL) | 30 to 90 µM (≈ 7.69 to 23.1 µg/mL) | 67 µM | LepB-UE MIC [2, 5]: 30 ± 3 µM; Change in potency against LepB-UE compared to compound 1 [2]: at least 10 fold |
| CC(C)=NNc1nc(C)cc(C)n1 [Compound 25] | – | > 200 µM | > 200 µM | > 100 µM | – |

| Structure (SMILES) | IC50 (LepB) | MIC [1, 3] | MIC [2, 4] | CC50 (in vitro) | further results |
| --- | --- | --- | --- | --- | --- |
| C/C(=N\Nc1nc(C)cc(C)n1)c1cccnc1 [Compound 26] | – | > 200 µM | > 200 µM | – | – |
| C/C(=N\Nc1ccccn1)c1ccccn1 [Compound 29] | – | > 200 µM | 130 µM (≈ 27.6 µg/mL) | > 100 µM | Change in potency against LepB-UE compared to compound 1 [2]: 42 fold |
| C/C(=N\NC(=N)c1ccccn1)c1ccccn1 [Compound 30] | – | 47 ± 6 µM (≈ 11.2 µg/mL) | 7.7 ± 0.2 µM (≈ 1.84 µg/mL) | 59 µM | Change in potency against LepB-UE compared to compound 1 [2]: activity was comparable to that of 1 |
| C/C(=N\NC(=O)c1ccncc1)c1ccccn1 [Compound 31] | – | 4.7 ± 0.3 µM (≈ 1.13 µg/mL) | 3.5 to 15 µM (≈ 0.841 to 3.6 µg/mL) | 10 µM | LepB-UE MIC [2, 5]: 3.6 ± 0.7 µM; Change in potency against LepB-UE compared to compound 1 [2]: activity was comparable to that of 1 |
| N=C(N/N=C/c1cccc(Cl)c1)c1ccccn1 [Compound 32] | – | 59 µM (≈ 15.3 µg/mL) | 41 µM (≈ 10.6 µg/mL) | 62 µM | – |
| C/C(=N\NC(=O)c1ccc(Br)o1)c1ccccn1 [Compound 35] | – | 5.3 ± 3.3 µM (≈ 1.63 µg/mL) | – | 0.6 µM | LepB-UE MIC [2, 5]: 8.2^b μM |
| C/C(=N\NC(=O)c1cc(Br)ccc1O)c1ccccn1 [Compound 37] | – | 4.2 ± 2.6 µM (≈ 1.4 µg/mL) | 2 to 2.5 µM (≈ 0.668 to 0.835 µg/mL) | 5.4 µM | LepB-UE MIC [2, 5]: 2.0 ± 0.5 µM |
| C/C(=N\NC(N)=S)c1ccccn1 [Compound 41] | – | 4 µM (≈ 0.777 µg/mL) | 3.6 µM (≈ 0.699 µg/mL) | 22 µM | Differential activity (difference in MIC, wt versus LepB-UE) [2]: equally potent toward both wt and LepB-UE; Change in potency against LepB-UE compared to compound 1 [2]: comparable to that of 1 |
| CC1=NN(c2nc(C)cc(C)n2)C(=O)C1Cc1ccccc1 (stereo not shown) [Compound 45] | – | 68 ± 12 µM (≈ 20 µg/mL) | 56 ± 3 µM (≈ 16.5 µg/mL) | > 100 µM | – |
| CCOC(=O)c1c(C)nn(-c2nc(C)cc(C)n2)c1N [Compound 48] | – | > 200 µM | 44 ± 6 µM (≈ 12.1 µg/mL) | > 100 µM | – |
| Cc1cc(C)nc(-n2nc(C)c3c2CC(c2cccs2)CC3=O)n1 (stereo not shown) [Compound 49] | – | > 200 µM | > 200 µM | – | – |
| Cc1cc(C)nc(-n2nc(C)c3c2NC(=O)CC3c2ccccc2)n1 (stereo not shown) [Compound 50] | – | > 200 µM | > 200 µM | 66 µM | – |
| CN(Cc1ccn(C)n1)C(=O)c1ccn(-c2ccc([N+](=O)[O-])cc2)n1 [Compound 51] | – | > 200 µM | > 200 µM | > 100 µM | – |
| Cc1ccn(-c2ccc(C(=O)O)cc2)n1 [Compound 52] | – | > 200 µM | > 200 µM | > 100 µM | – |
| Cc1ccc(C(N)=O)cc1-n1ccc(-c2cccnc2)n1 [Compound 53] | – | > 200 µM | > 200 µM | > 100 µM | – |
| CC(O)c1nc2cc(-n3ccc(-c4cnccn4)n3)ccc2[nH]1 (stereo not shown) [Compound 54] | – | > 200 µM | > 200 µM | > 100 µM | – |
| OCc1ccccc1-n1ccc(-c2cccnc2)n1 [Compound 55] | – | > 200 µM | > 200 µM | > 100 µM | – |
| Cc1ccc(C(N)=O)cc1-n1ccc(-c2cnccn2)n1 [Compound 56] | – | > 200 µM | > 200 µM | > 100 µM | – |
| CO[C@H]1/C=C/O[C@@]2(C)Oc3c(C)c(O)c4c(O)c(c(/C=N/N5CCN(C)CC5)c(O)c4c3C2=O)NC(=O)/C(C)=C\C=C\[C@H](C)[C@H](O)[C@@H](C)[C@@H](O)[C@@H](C)[C@H](OC(C)=O)[C@@H]1C [rifampicin, reference compound] | – | – | – | – | MIC ([1]; read-out: MIC against wt): 0.0077 ± 0.0023 µM (≈ 0.00634 µg/mL); MIC ([2]; rifampicin, LepB-UE strain, read-out: MIC against LepB-UE): 0.0054 ± 0.0009 µM (≈ 0.00444 µg/mL) |
